Molecules are shown by their SMILES. A value given as a limit tells only on which side of the number the result lay.

The assay deals with T1, Lysine-specific demethylase 4C (Homo sapiens, UniProt Q9H3R0).
T1 sequence (Q9H3R0 whole entry): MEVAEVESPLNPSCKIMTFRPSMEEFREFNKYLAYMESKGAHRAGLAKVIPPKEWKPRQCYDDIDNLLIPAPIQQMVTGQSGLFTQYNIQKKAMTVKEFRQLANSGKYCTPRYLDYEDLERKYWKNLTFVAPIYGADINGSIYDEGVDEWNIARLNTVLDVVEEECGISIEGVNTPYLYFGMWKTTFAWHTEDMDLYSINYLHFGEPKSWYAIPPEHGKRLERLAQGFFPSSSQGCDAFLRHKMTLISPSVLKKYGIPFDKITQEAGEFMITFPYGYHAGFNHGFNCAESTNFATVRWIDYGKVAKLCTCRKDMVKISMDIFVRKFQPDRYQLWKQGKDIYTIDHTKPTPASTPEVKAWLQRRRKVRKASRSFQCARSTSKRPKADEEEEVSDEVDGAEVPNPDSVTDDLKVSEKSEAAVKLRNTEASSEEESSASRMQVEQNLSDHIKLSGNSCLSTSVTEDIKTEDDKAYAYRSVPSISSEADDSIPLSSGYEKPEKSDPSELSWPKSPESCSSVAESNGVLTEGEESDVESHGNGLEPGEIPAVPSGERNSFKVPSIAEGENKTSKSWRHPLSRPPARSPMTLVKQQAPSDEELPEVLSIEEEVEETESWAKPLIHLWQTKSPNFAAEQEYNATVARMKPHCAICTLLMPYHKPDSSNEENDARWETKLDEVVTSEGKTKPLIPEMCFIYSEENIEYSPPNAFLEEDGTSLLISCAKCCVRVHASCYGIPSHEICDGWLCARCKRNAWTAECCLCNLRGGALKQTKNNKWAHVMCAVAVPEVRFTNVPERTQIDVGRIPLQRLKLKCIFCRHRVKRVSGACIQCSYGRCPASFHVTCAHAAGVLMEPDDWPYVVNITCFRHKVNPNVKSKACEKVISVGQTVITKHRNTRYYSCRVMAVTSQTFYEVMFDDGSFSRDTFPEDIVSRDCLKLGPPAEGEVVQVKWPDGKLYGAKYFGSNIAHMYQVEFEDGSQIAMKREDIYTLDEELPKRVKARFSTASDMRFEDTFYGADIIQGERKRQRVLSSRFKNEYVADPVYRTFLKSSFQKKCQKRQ
Kind of assay: JMJD2C Assay. The protocol: The ability of test compounds to inhibit the activity of JMJD2C was determined in 384-well plate-format under the following reaction conditions: 0.3 nM JMJD2C, 300 nM H3K9me3-biotin labeled peptide (Anaspec cat #64360), 2 μM alpha-ketoglutaric acid in assay buffer of 50 mM HEPES, pH 7.3, 0.005% Brij35, 0.5 mM TCEP, 0.2 mg/ml BSA, 50 μM sodium L-ascorbate, and 2 μM ammonium iron(II) sulfate. Reaction product was determined quantitatively by TR-FRET after the addition of detection reagent Phycolink Streptavidin-allophycocyanin (Prozyme) and Europium-anti-di-methylated histone H3 lysine 9 (H3K9me2) antibody (PerkinElmer) in the presence of 5 mM EDTA in LANCE detection buffer (PerkinElmer) at a final concentration of 50 nM and 1 nM, respectively.The assay reaction was initiated by the following: 2 μl of the mixture of 900 nM H3K9me3-biotin labeled peptide and 6 μM alpha-ketoglutaric acid with 2 μl of 11-point serial diluted inhibitor in 3% DMSO were added to each well of the plate, followed by the addition of 2 μl of 0.9 nM JMJD2C to initiate the reaction. […] Plates were read by EnVisionMultilabel Reader in TR-FRET mode (excitation at 320 nm, emission at 615 nm and 665 nm) after 1 hr incubation at room temperature. A ratio was calculated (665/615) for each well and fitted to determine inhibition constant (IC50).

The compound `Cc1cc(Oc2nc(O)c3ccncc3n2)ccc1N(C)c1cc(N2CCN(C)CC2)ccc1C` [US10202381, Example 147] yielded an IC50 below 100 nM.
`COc1ccc(N2CCN(C)CC2)cc1N(C)c1ccc(Oc2nc(O)c3ccncc3n2)cc1C` [US10202381, Example 145] displayed an IC50 below 100 nM.

(Values after BindingDB's records for patent US10202381 (Celgene Quanticel Research Inc, 2019).)
